Assay results published in patent publication US20260078130A1, “NAMPT MODULATORS, PREPARATIONS, AND USES THEREOF” (SIRONAX LTD., priority 2022, published 2026).
pEC50: −log10 of the molar value. Where two headings read alike, the source gives them in different places.

Molecular target: T1, human enzyme NAMPT (full length) (Homo sapiens, UniProt P43490)
T1 construct: human enzyme NAMPT (full length)
Experiment: NMN fluorescence biochemical assay (stimulation of NMN synthesis by NAMPT)
Conditions: for pEC50: concentration giving half-maximal activation, read-out: Enzymatic EC50; for Enzymatic Emax: fold change of maximal activation compared to DMSO
Method: Certain compounds described herein were assayed for their ability to stimulate the synthesis of nicotinamide mononucleotide (NMN) by human enzyme NAMPT (full length). The enzymatic assay was performed in a 384-well plate using a TMD buffer (50 mM Tris-HCl, 10 mM MgCl2, 2 mM DTT, pH 7.5). Purified NAMPT (100 nM) was pre-incubated with 0.2 μL. DMSO solution of the test compound (with a series of concentrations) in 10 μL TMD buffer for 15 min at 37° C. The reaction was initiated by adding 10 μL solution of NAM (50 μM), PRPP (100 μM), and ATP (4 mM) in TMD buffer. After 1 h of incubation at 37 T, an aliquot (20 μL) of the NMN-containing sample was sequentially mixed with 5 μL of 20% acetophenone (in DMSO) and 5 μL of 2M KOH. The mixture was placed on ice for 10 min. Next, 22.5 μL of 100% formic acid was added to each sample, vortexed, and then incubated at 37° C. for 20 min. Fluorescence (Ex/Em=382/445 nm) was measured using an Envision plate reader. The potency measurements for the test compounds were quantified and represented as EC50 (concentration of a compound that gives half-maximal activation) and Emax (fold change of a compound's maximal activation compared to DMSO).

[1] = NMN synthesis by purified human NAMPT (100 nM)
[2] = NMN fluorescence assay, purified human NAMPT 100 nM

T1 sequence (P43490 whole entry): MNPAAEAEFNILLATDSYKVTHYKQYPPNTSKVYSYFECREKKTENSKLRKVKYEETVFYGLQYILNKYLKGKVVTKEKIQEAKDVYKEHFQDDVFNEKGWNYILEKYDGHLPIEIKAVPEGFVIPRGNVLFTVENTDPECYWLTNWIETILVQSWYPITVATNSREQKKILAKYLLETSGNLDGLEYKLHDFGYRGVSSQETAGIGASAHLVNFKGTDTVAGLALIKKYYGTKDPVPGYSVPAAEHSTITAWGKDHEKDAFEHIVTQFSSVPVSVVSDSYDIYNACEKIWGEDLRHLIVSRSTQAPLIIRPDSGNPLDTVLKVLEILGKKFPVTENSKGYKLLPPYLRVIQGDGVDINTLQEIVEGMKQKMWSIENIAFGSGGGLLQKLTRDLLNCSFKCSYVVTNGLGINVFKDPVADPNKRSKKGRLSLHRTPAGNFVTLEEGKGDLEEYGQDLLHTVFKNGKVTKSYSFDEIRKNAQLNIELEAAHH

Structure (SMILES)	pEC50 [1]	Enzymatic Emax	pEC50 [2]
O=C1c2ccccc2C(Cc2ncccc2Br)N1CC1CC2(CC(O)C2)C1 (centres unmarked) [Compound 321, 3-((3-bromopyridin-2-yl)methyl)-2-((6-hydroxyspiro[3.3]heptan-2-yl)methyl) isoindolin-1-one]	–	B (3≥B>2)	5.30 to 6.30
COc1ccc(CN2C(=O)c3ccccc3C2Cc2c(Cl)cnn2C)nc1 (centres unmarked) [Compound 529, 3-((4-chloro-1-methyl-1H-pyrazol-5-yl)methyl)-2-((5-methoxypyridin-2-yl)methyl)isoindolin-1-one]	–	C (2≥C)	5.30 to 6.30
O=C1CC2(CN1)CC(CN1C(=O)c3ccccc3C1Cc1ncccc1Br)C2 (centres unmarked) [Compound 424, 3-((3-bromopyridin-2-yl)methyl)-2-((7-oxo-6-azaspiro[3.4]octan-2-yl)methyl) isoindolin-1-one]	–	C (2≥C)	≤ 5.30
CC1c2c(cccc2C2CC2)C(=O)N1Cc1ccc2[nH]c(=O)oc2c1 (centres unmarked) [Compound 245, 6-((4-cyclopropyl-3-methyl-1-oxoisoindolin-2-yl)methyl)benzo[d]oxazol-2(3H)-one]	≤ 5.30	B (3≥B>2)	–
Cc1nc2cc(CN3C(=O)c4ccccc4C3Cc3ncccc3Br)ccc2[nH]1 (centres unmarked) [Compound 358, 3-((3-bromopyridin-2-yl)methyl)-2-((2-methyl-1H-benzo[d]imidazol-5-yl)methyl)isoindolin-1-one]	–	A (A>3)	5.30 to 6.30
Cn1ncc(Cl)c1CC1c2ccccc2C(=O)N1CC1CCc2[nH]nnc21 (centres unmarked) [Compound 457, 3-((4-chloro-1-methyl-1H-pyrazol-5-yl)methyl)-2-((1,4,5,6-tetrahydrocyclopenta[d][1,2,3]triazol-4-yl)methyl)isoindolin-1-one]	–	C (2≥C)	≤ 5.30
Cn1ncc(Cl)c1CC1c2ccccc2C(=O)N1Cc1nn[nH]c1F (centres unmarked) [Compound 630, 3-((4-chloro-1-methyl-1H-pyrazol-5-yl)methyl)-2-((5-fluoro-1H-1,2,3-triazol-4-yl)methyl)isoindolin-1-one]	–	C (2≥C)	≤ 5.30
O=C1c2ccccc2C(Cc2ncccc2C2CC2)N1Cc1ccc2[nH]c(=O)oc2c1 (centres unmarked) [Compound 184, 6-((1-((3-cyclopropylpyridin-2-yl)methyl)-3-oxoisoindolin-2-yl)methyl)benzo[d]oxazol-2(3H)-one]	5.30 to 6.30	B (3≥B>2)	–

The remaining lines, values ahead:

pEC50 [1]	Enzymatic Emax	pEC50 [2]	Structure (SMILES)
5.30 to 6.30	B (3≥B>2)	–	Nc1ccccc1CC1c2ccccc2C(=O)N1Cc1ccc2[nH]c(=O)oc2c1 (centres unmarked) [Compound 208, 6-((1-(2-aminobenzyl)-3-oxoisoindolin-2-yl)methyl)benzo[d]oxazol-2(3H)-one]
5.30 to 6.30	B (3≥B>2)	–	O=C1c2ccccc2C(Cc2cccnc2F)N1Cc1ccc2[nH]c(=O)oc2c1 (centres unmarked) [Compound 183, 6-((1-((2-fluoropyridin-3-yl)methyl)-3-oxoisoindolin-2-yl)methyl)benzo[d]oxazol-2(3H)-one]
5.30 to 6.30	B (3≥B>2)	–	O=C1c2ccccc2C(CC2CCCC2)N1Cc1ccc2[nH]c(=O)oc2c1 (centres unmarked) [Compound 252, 6-((1-(cyclopentylmethyl)-3-oxoisoindolin-2-yl)methyl)benzo[d]oxazol-2(3H)-one]
≤ 5.30	B (3≥B>2)	–	O=C1Cc2ccccc2CN1Cc1ccc(O)cc1 [Compound 10, 2-(4-hydroxybenzyl)-1,4-dihydroisoquinolin-3(2H)-one]
–	B (3≥B>2)	> 6.30	CN(C)C1CN(c2ccc3c(c2)C(Cc2c(Cl)cnn2C)N(CC2CC4(CNC(=O)O4)C2)C3=O)C1 (centres unmarked) [Compound 497, 2-((3-((4-chloro-1-methyl-1H-pyrazol-5-yl)methyl)-5-(3-(dimethylamino)azetidin-1-yl)-1-oxoisoindolin-2-yl)methyl)-5-oxa-7-azaspiro[3.4]octan-6-one]
